Laboratory results published in US5140009A (Tap Pharmaceuticals, Inc., priority 1990, dated 1992).
Numbered stars: 1 amine (or outer) side, 2 acyl side, 3 side chain; on linkers, the order of the positions; unused ones are H or OH. Square brackets hold non-standard residues; d marks the D form. Side chains are listed from the residue outwards. Peptide text beside a SMILES is read from it. * marks the point of attachment. Propanoyl(3-(4-F-phenyl)) = O=C(CCc1ccc(F)cc1)*; d1Nal = N[C@H](Cc1cccc2ccccc12)C(=O)O; Lys(iPr) = CC(C)NCCCC[C@H](N)C(=O)O; NMeY = CN[C@@H](Cc1ccc(O)cc1)C(=O)O; dBta = N[C@H](Cc1csc2ccccc12)C(=O)O; Pyrazinecarbonyl = O=C(c1cnccn1)*; Piperazinyl(4-Me) = CN1CCN(*)CC1; Nicotinoyl = O=C(c1cccnc1)*; CO = O=C([*:1])[*:2]

Key:
male castrate rats = experiment: In vivo LH Inhibiton; parameters: species or system rat; conditions: table 4, 30 ug/kg subcutaneously by bolus injection, AUC of log (LHt /LHi)
Description: (c) In vivo LH Inhibiton. The compound to be tested is administered at 30 ug/kg subcutaneously by bolus injection to male castrate rats and blood samples are collected periodically over 24 hours. The AUC (area under the curve) of the LH suppression data as a function of time is calculated using the formula log (LHt /LHi) wherein LHt is the LH concentration in the blood at time t and LHi is the initial baseline LH concentration in the blood. The AUC values are negative numbers.

LHRH receptors = molecular target: T1, LHRH receptors (Rattus norvegicus, UniProt P30969); experiment: Receptor Binding (radioligand receptor binding assay); conditions: rat pituitary membranes, 2 hours at 4° C.; for Ki: read-out: Receptor Binding pkI (converted)
T1 construct: Pituitary membranes containing LHRH receptors are prepared in batches from quick-frozen rat pituitaries; tissue Hilltop Labs; host or cells: rat pituitary membranes
T1 sequence (P30969 1-327): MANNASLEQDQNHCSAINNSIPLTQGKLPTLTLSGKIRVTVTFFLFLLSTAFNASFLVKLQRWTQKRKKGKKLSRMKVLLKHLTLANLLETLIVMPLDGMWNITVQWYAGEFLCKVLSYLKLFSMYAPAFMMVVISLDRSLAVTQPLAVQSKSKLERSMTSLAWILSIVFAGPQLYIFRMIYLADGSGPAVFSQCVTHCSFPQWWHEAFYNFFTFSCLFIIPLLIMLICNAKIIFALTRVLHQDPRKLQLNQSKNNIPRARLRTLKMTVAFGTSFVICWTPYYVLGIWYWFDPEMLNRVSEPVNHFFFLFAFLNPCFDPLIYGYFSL

Rat pituitaries = molecular target: T2, Rat pituitaries (Rattus norvegicus, UniProt P30969); experiment: In vitro LH release suppression by LHRH antagonists in presence of superagonist [D-Leu^6 -Pro^9 NHEt]LHRH (pA2); assay type: cell-based; conditions: negative log of concentration producing half-maximum suppression of LH
T2 sequence (P30969 1-327): T1 sequence (P30969 1-327)

castrated rats = experiment: In vivo LH Release; parameters: species or system rat; conditions: table 3, dose producing half-maximal LH release
Description: (d) In vivo LH Release. The compound to be tested is administered to castrated rats intraveneously and the serum LH concentration at various time points is measured by RIA. The time integrated LH response is calculated and the dose producing half-maximal LH release (ED50) is reported.

Row | Compound | AUC (24 hr. after 30 ug/kg) (male castrate rats) | Ki (LHRH receptors; table 4, radioligand 50 pM) [pM] | other results
1 | CC(C)C[C@H](NC(=O)[C@@H](CCCCN)NC(=O)[C@H](Cc1ccc(O)cc1)N(C)C(=O)[C@H](CO)NC(=O)[C@@H](Cc1csc2ccccc12)NC(=O)CCc1ccc(F)cc1)C(=O)N[C@@H](CCCNC(=N)N)C(=O)N1CCC[C@H]1C(=O)N[C@H](C)C(N)=O [Compound 177, (3-10)[N-(3-(4-Fluorophenyl)propionyl)-D-3-Bal^3 -NMeTyr^5 -D-Lys^6 -D-Ala^10]LHRH] ({Propanoyl(3-(4-F-phenyl))}-[dBta]S[NMeY][dK]LRP[dA]-NH2) | -938 | 5.89 | –
2 | CC(C)C[C@H](NC(=O)[C@@H](CCCCNC(=O)c1cnccn1)NC(=O)[C@H](Cc1ccc(O)cc1)N(C)C(=O)[C@H](CO)NC(=O)[C@@H](Cc1cccc2ccccc12)NC(=O)CCc1ccc(F)cc1)C(=O)N[C@@H](CCCCNC(C)C)C(=O)N1CCC[C@H]1C(=O)N[C@H](C)C(N)=O [Compound 207, (3-10)[N-(3-(4-Fluorophenyl)propionyl)-D-1-Nal^3 -NMeTyr^5 -D-Lys^6 (N-epsilon-2-pyrazinyecarbonyl)-Lys^8 (N-epsilon-isopropyl)-D-Ala^10]LHRH] ({Propanoyl(3-(4-F-phenyl))}-[d1Nal]S[NMeY][dK](Pyrazinecarbonyl)L[Lys(iPr)]P[dA]-NH2) | -412 | 2.88 | –
3 | (3-10)[N-(3-(4-Fluorophenyl)propionyl)-D-Trp^3 -NMeTyr^5 -D-Lys^6 -D-Ala^10 ]LHRH [Compound 182] | – | – | LH Inhibition pA2 (Rat pituitaries; table 4): 9.32; Receptor Binding pkI (LHRH receptors; table 4, radioligand 50 pM): 10.55
4 | CC(C)C[C@H](NC(=O)[C@@H](CCCCNC(=O)c1cccnc1)NC(=O)[C@H](Cc1ccc(O)cc1)N(C)C(=O)[C@H](CO)NC(=O)[C@@H](Cc1cccc2ccccc12)NC(=O)CCc1ccc(F)cc1)C(=O)N[C@@H](CCCCNC(C)C)C(=O)N1CCC[C@H]1C(=O)N[C@H](C)C(N)=O [Compound 197, (3-10)[N-(3-(4-Fluorophenyl)propionyl)-D-1-Nal^3 -NMeTyr^5 -D-Lys^6 (N-epsilon-nicotinyl)-Lys^8 (N-epsilon-isopropyl)-D-Ala^10]LHRH] ({Propanoyl(3-(4-F-phenyl))}-[d1Nal]S[NMeY][dK](Nicotinoyl)L[Lys(iPr)]P[dA]-NH2) | -688 | 11.2 | –
5 | CC(C)C[C@H](NC(=O)[C@@H](CCCCNC(=O)c1cccnc1)NC(=O)[C@H](Cc1ccc(O)cc1)N(C)C(=O)[C@H](CO)NC(=O)[C@@H](Cc1c[nH]c2ccccc12)NC(=O)CCc1ccc(F)cc1)C(=O)N[C@@H](CCCCNC(C)C)C(=O)N1CCC[C@H]1C(=O)N[C@H](C)C(N)=O [Compound 195, (3-10)[N-(3-(4-Fluorophenyl)propionyl)-D-Trp^3 -NMeTyr^5 -D-Lys^6 (N-epsilon-nicotinyl)-Lys^8 (N-epsilon-isopropyl)-D-Ala^10]LHRH] ({Propanoyl(3-(4-F-phenyl))}-[dW]S[NMeY][dK](Nicotinoyl)L[Lys(iPr)]P[dA]-NH2) | -158 | 23.4 | –
6 | CC(C)C[C@H](NC(=O)CNC(=O)[C@H](Cc1ccc(O)cc1)NC(=O)[C@H](CO)NC(=O)[C@H](Cc1c[nH]c2ccccc12)NC(=O)[C@H](Cc1c[nH]cn1)NC(=O)[C@@H]1CCC(=O)N1)C(=O)N[C@@H](CCCNC(=N)N)C(=O)N1CCC[C@H]1C(=O)NCC(N)=O [LHRH, Luteinizing hormone releasing hormone] | – | – | ED50 ug/kg i.v. (castrated rats): 859 µg/kg
7 | (2-9)[N-(N-alpha-Morpholinocarbonyl)-D,L-4-F-Phe^2 -D-Trp^6 -Pro^9 NHEt]LHRH [Compound 113] | – | – | LH Inhibition pA2 (Rat pituitaries; table 3): 8.63; Receptor Binding pkI (LHRH receptors; table 3, radioiodinated [D-Leu^6 -des Gly^10 ]-LHRH ethyl amide 50 pM): 9.51
8 | CC(C)C[C@H](NC(=O)[C@@H](CCCCNC(=O)N1CCN(C)CC1)NC(=O)[C@H](Cc1ccc(O)cc1)N(C)C(=O)[C@H](CO)NC(=O)[C@@H](Cc1cccc2ccccc12)NC(=O)CCc1ccc(F)cc1)C(=O)N[C@@H](CCCNC(=N)N)C(=O)N1CCC[C@H]1C(=O)N[C@H](C)C(N)=O [Compound 211, N-(3-(4-Fluorophenyl)propionyl)-D-1-Nal-Ser-NMeTyr-D-Lys(N-epsilon-N'-N"-methylpiperazinecarbonyl)-Leu-Arg-Pro-D-AlaNH2] ({Propanoyl(3-(4-F-phenyl))}-[d1Nal]S[NMeY][dK]([CO-Piperazinyl(4-Me)])LRP[dA]-NH2) | -449 | 15.1 | –
9 | CCNC(=O)[C@@H]1CCCN1C(=O)[C@H](CCCCNC(C)C)NC(=O)[C@H](CC(C)C)NC(=O)[C@@H](CCCCNC(=O)c1cccnc1)NC(=O)[C@H](Cc1ccc(O)cc1)N(C)C(=O)[C@H](CO)NC(=O)[C@@H](Cc1cccc2ccccc12)NC(=O)CCc1ccc(F)cc1 [Compound 209, N-(3-(4-Fluorophenyl)propionyl)-D-1-Nal-Ser-NMeTyr-D-Lys(N-epsilon-nicotinyl)-Leu-Lys(N-epsilon-isopropyl)-Pro-NHEt] ({Propanoyl(3-(4-F-phenyl))}-[d1Nal]S[NMeY][dK](Nicotinoyl)L[Lys(iPr)]P-NHEt) | -343 | 2.4 | –
